Experimental data taken from ChEMBL document CHEMBL1201862, “PubChem BioAssay data set” (2004).
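Cultured in 96-well plates, cells were exposed to test compound for 48 hours across five concentrations. At the GI50, growth is halved.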 Active and inactive are the calls of the source. No stated cut-off is given here; in the data, active = GI50 up to about 1.1 µM and inactive = higher.

What was measured:
Assay in all cases: inhibition of tumour cell growth, NCI panel, 48 h
SK-MEL-2 = system: SK-MEL-2
UO-31 = system: UO-31
MDA-MB-231 = system: MDA-MB-231
EKVX = system: EKVX
Hs-578T = system: Hs-578T
COLO 205 = system: COLO 205
Malme-3M = system: Malme-3M
CAKI-1 = system: CAKI-1
RPMI-8226 = system: RPMI-8226
MCF7 = system: MCF7
OVCAR-4 = system: OVCAR-4
RXF 393 = system: RXF 393
SK-MEL-5 = system: SK-MEL-5
U-251 = system: U-251
HCT-15 = system: HCT-15
LOX IMVI = system: LOX IMVI
UACC-62 = system: UACC-62
A498 = system: A498
SF-268 = system: SF-268
SR = system: SR

Structure (SMILES) | GI50 (SK-MEL-2) | GI50 (UO-31) | GI50 (MDA-MB-231) | GI50 (EKVX) | GI50 (Hs-578T) | GI50 (COLO 205) | GI50 (Malme-3M) | GI50 (CAKI-1) | GI50 (RPMI-8226) | GI50 (MCF7) | GI50 (OVCAR-4) | GI50 (RXF 393) | GI50 (SK-MEL-5) | GI50 (U-251) | GI50 (HCT-15) [µM] | GI50 (LOX IMVI) | GI50 (UACC-62) | GI50 (A498) | GI50 (SF-268) | GI50 (SR)
C/C(=N\Nc1nc2ccccc2s1)c1ccc2ccccc2n1 | 58.5 µM (inactive) | 53.7 µM (inactive) | 46 µM (inactive) | 12.2 µM (inactive) | 84.1 µM (inactive) | 75.7 µM (inactive) | 58.6 µM (inactive) | 55.6 µM (inactive) | 18.5 µM (inactive) | 46.3 µM (inactive) | 11.2 µM (inactive) | 26.4 µM (inactive) | 30.2 µM (inactive) | > 100 µM (inactive) | > 100 | > 100 µM (inactive) | > 100 µM (inactive) | > 100 µM (inactive) | 28.8 µM (inactive) | 2 µM (inactive)
Nc1ccccc1.O=C(O)C(C(F)(F)F)C(F)(F)F | > 100 µM (inactive) | > 100 µM (inactive) | > 100 µM (inactive) | > 100 µM (inactive) | > 100 µM (inactive) | > 100 µM (inactive) | > 100 µM (inactive) | 34 µM (inactive) | > 100 µM (inactive) | > 100 µM (inactive) | > 100 µM (inactive) | > 100 µM (inactive) | > 100 µM (inactive) | > 100 µM (inactive) | 14.9 | > 100 µM (inactive) | 68.5 µM (inactive) | > 100 µM (inactive) | > 100 µM (inactive) | > 100 µM (inactive)
O=C1C(CN2CCOCC2)CCCC1CN1CCOCC1 (stereo not given) | 8.36 µM (inactive) | 9.73 µM (inactive) | 5.97 µM (inactive) | 4.23 µM (inactive) | 23 µM (inactive) | 3.1 µM (inactive) | 0.724 µM (active) | 0.394 µM (active) | 0.296 µM (active) | 0.303 µM (active) | 2.18 µM (inactive) | 1.75 µM (inactive) | 11.1 µM (inactive) | 30.1 µM (inactive) | 1.09 | 3.28 µM (inactive) | 7.85 µM (inactive) | 23 µM (inactive) | 9.77 µM (inactive) | 5.31 µM (inactive)
C=C1CN2CC(=C)CN(C1)CS(=O)(=O)N1CC(=C)CN(CC(=C)C1)S(=O)(=O)N1CC(=C)CN(CC(=C)C1)S(=O)(=O)C2 | 38.4 µM (inactive) | 42 µM (inactive) | 24.2 µM (inactive) | 39.1 µM (inactive) | 25.4 µM (inactive) | 34 µM (inactive) | 23.3 µM (inactive) | > 100 µM (inactive) | 39.4 µM (inactive) | 50.1 µM (inactive) | 34.3 µM (inactive) | 19.5 µM (inactive) | 19.4 µM (inactive) | 32.7 µM (inactive) | > 100 | > 100 µM (inactive) | 93.3 µM (inactive) | 46.5 µM (inactive) | 25.6 µM (inactive) | > 100 µM (inactive)
O=S(=O)(/C=C/C=C/[S+]([O-])c1ccccc1)c1ccccc1 (stereo not given) | 2.01 µM (inactive) | 2.27 µM (inactive) | 2.81 µM (inactive) | > 10 µM (inactive) | 3.51 µM (inactive) | 1.76 µM (inactive) | 1.98 µM (inactive) | 1.84 µM (inactive) | 0.875 µM (active) | 0.887 µM (active) | 1.59 µM (inactive) | 1.58 µM (inactive) | 1.03 µM (active) | > 10 µM (inactive) | 2.05 | 1.03 µM (active) | 1.44 µM (inactive) | 6.97 µM (inactive) | 3.13 µM (inactive) | 0.877 µM (active)
